Measured values reported in patent US6319932A, “Oxazolidinones useful as alpha 1A adrenoceptor antagonists” (Merck & Co., Inc., priority 1999, dated 2001).

How the values were obtained:
[1] = system: human alpha 1d adrenergic receptor; assay: Selective Binding Assays, alpha 1d ([125I]-HEAT competition binding); details: alpha 1a versus alpha 1d
Procedure: (§1) Membranes prepared from stably transfected human alpha 1d and alpha 1b cell lines (ATCC CRL 11138 and CRL 11139, respectively) were used to identify compounds that selectively bind to the human alpha 1a adrenergic receptor. These competition binding reactions (total volume=200 μl ) contained 50 mM Tris-HCl pH. 7.4, 5 mM EDTA, 150 mM NaCl, 100 pM [^125 I]-HEAT, membranes prepared from cell lines transfected with the respective alpha 1 subtype expression plasmid and increasing amounts of unlabeled ligand. Reactions were incubated at room temperature for one hour with shaking. Reactions were filtered onto Whatman GF/C glass fiber filters with a Inotec 96 well cell harvester. Filters were washed three times with ice cold buffer and bound radioactivity was determined (Ki).

[2] = system: human alpha 1b adrenergic receptor; assay: Selective Binding Assays, alpha 1b ([125I]-HEAT competition binding); details: alpha 1a versus alpha 1b
Procedure: as §1

[3] = target: T1, human alpha 1a adrenergic receptor (Homo sapiens, UniProt P35348); assay: Screening Assay: Alpha 1a Adrenergic Receptor Binding ([125I]-HEAT competition binding); details: membranes of stably transfected human alpha 1a cell line; 100 pM [125I]-HEAT
T1 construct: expressed in transfected cells; host or cells: stably transfected human alpha 1a cell line (ATCC CRL 11140), membranes
T1 sequence (P35348 1-466): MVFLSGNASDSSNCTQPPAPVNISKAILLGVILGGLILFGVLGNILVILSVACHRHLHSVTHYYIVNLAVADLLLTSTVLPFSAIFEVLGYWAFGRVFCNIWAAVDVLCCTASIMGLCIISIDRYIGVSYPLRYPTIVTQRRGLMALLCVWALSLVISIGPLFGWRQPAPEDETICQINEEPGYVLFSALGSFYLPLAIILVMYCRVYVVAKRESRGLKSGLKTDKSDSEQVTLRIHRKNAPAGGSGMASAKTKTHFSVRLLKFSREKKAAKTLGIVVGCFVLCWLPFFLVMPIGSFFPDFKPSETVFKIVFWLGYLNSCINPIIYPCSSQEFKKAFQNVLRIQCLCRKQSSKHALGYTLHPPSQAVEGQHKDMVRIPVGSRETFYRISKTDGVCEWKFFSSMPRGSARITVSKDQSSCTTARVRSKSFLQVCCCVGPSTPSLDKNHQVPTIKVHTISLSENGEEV
Procedure: Screening Assay: Alpha 1a Adrenergic Receptor Binding
Membranes prepared from the stably transfected human alpha 1a cell line (ATCC CRL 11140) were used to identify compounds that bind to the human alpha 1a adrenergic receptor. These competition binding reactions (total volume=200 μl) contained 50 mM Tris-HCl pH. 7.4, 5 mM EDTA, 150 mM NaCl, 100 pM [^125 I]-HEAT, membranes prepared from the alpha 1a cell line and increasing amounts of unlabeled ligand. Reactions were incubated at room temperature for one hour with shaking. Reactions were filtered onto Whatman GF/C glass fiber filters with a Inotec 96 well cell harvester. Filters were washed three times with ice cold buffer and bound radioactivity was determined (Ki).

| selectivity in binding to alpha 1a receptors versus alpha 1d receptors [1] | selectivity in binding to alpha 1a receptors versus alpha 1b receptors [2] | Structure (SMILES) | Ki [3] |
| --- | --- | --- | --- |
| about 76 fold | about 27 fold | O=C(c1ccccc1)[C@@H]1OC(=O)N(C(=O)NCCCN2CCC(c3ccc(F)cc3)CC2)[C@H]1c1ccc(F)c(F)c1 [Example 11] | – |
| – | – | N#Cc1ccccc1C1(C#N)CCN(CCCNC(=O)N2C(=O)O[C@@H](C(N)=O)[C@@H]2c2ccc(F)c(F)c2)CC1 [Example 10] | 3.9 nM |
